For 34 compounds, IC50 results are on record in patent publication US20250353841A1 (BIOGEN MA INC., priority 2022, published 2025).

The experiment has as its system mutant Huntington (HTT) protein. The experiment in a line: HTT Mutant HTRF iPSC assay (mHTT protein lowering). In kind it is cell-based. Conditions: human iPSC derived from a HTT patient with a poly-Q49 mutation.
A word on the IC50: it is the concentration that inhibits the measured activity by half. Low readings indicate greater potency, high ones weaker potency. In the case of `Cc1cn2nc(-c3cc(F)c4nc(N(C)C5CC(C)(C)NC(C)(C)C5)oc4c3)ccc2n1` [Compound 504, 4-fluoro-N-methyl-6-(2-methylimidazo[1,2-b]pyridazin-6-yl)-N-(2,2,6,6-tetramethylpiperidin-4-yl)benzo[d]oxazol-2-amine], the IC50 lay in the range of 100 to 1000 nM.
On to `CCC(=O)N1CCC(c2cn3cc(-c4cc(C)c5nc(C)cn5n4)cc(F)c3n2)CC1` [Compound 120, 1-[4-[6-(2,8-dimethylimidazo[1,2-b]pyridazin-6-yl)-8-fluoro-imidazo[1,2-a]pyridin-2-yl]-1-piperidyl]propan-1-one], for which the IC50 fell in the range of 100 to 1000 nM.
`COc1cc(-c2cc(F)c3nn(C4CCN(C)CC4)cc3c2)nn2nc(C)nc12` [Compound 358, 6-(7-fluoro-2-(1-methylpiperidin-4-yl)-2H-indazol-5-yl)-8-methoxy-2-methyl-[1,2,4]triazolo[1,5-b]pyridazine] displayed an IC50 of under 100 nM.
In turn, `Cc1cn2nc(-c3cc(F)c4nc(C(=O)N(C)C5CCN(C)CC5)cn4c3)cc(C)c2n1` [Compound 332, 6-(2,8-dimethylimidazo[1,2-b]pyridazin-6-yl)-8-fluoro-N-methyl-N-(1-methylpiperidin-4-yl)imidazo[1,2-a]pyridine-2-carboxamide] showed an IC50 of under 100 nM.
For the compound `Cc1cn2nc(-c3cc(F)c4nc(C5CC=CC5)cn4c3)cc(C)c2n1` [Compound 196, 6-(2-cyclopent-3-en-1-yl-8-fluoro-imidazo[1,2-a]pyridin-6-yl)-2,8-dimethyl-imidazo[1,2-b]pyridazine], the half-inhibitory concentration (IC50) was 100 to 1000 nM.
As to `Cc1cn2cc(-c3cc(F)c4nc(C5CCNCC5)cn4c3)cc(Cl)c2n1` [Compound 32, 8-chloro-8′-fluoro-2-methyl-2′-(piperidin-4-yl)-6,6′-biimidazo[1,2-a]pyridine], the IC50 lay in the range of 100 to 1000 nM.
In turn, `CCN1CC[C@@H](N(C)c2nc3c(F)cc(-c4cc(C)c5nc(C)cn5n4)cc3o2)C[C@H]1C` (stereo in doubt) [Compound 487, rel-6-(2,8-dimethylimidazo[1,2-b]pyridazin-6-yl)-N-((2R,4R)-1-ethyl-2-methylpiperidin-4-yl)-4-fluoro-N-methylbenzo[d]oxazol-2-amine] had a 50% inhibitory concentration (IC50) of under 100 nM.
With `Fc1cc(-c2ccc3nonc3c2)cn2cc(C3CCNCC3)nc12` [Compound 51, 5-(8-fluoro-2-(piperidin-4-yl)imidazo[1,2-a]pyridin-6-yl)benzo[c][1,2,5]oxadiazole], the IC50 was in the range of 1000 to 9000 nM.
The result for `Cc1cn2nc(-c3cc(F)c4nc([C@H]5CCCNC5)cn4c3)cc(C)c2n1` (single isomer, unassigned) [Compound 117] reads 100 to 1000 nM.
The compound `Cc1cn2nc(-c3cc(F)c4nc(N5CCCC(N6CCCCC6)C5)oc4c3)cc(C)c2n1` (stereo not shown) [Compound 490, 2-([1,3′-bipiperidin]-1′-yl)-6-(2,8-dimethylimidazo[1,2-b]pyridazin-6-yl)-4-fluorobenzo[d]oxazole] had a 50% inhibitory concentration (IC50) of 100 to 1000 nM.
Compound `Cc1nc2c(F)cc(-c3cc(F)c4nc(C5CCNCC5)cn4c3)cc2s1` [Compound 90, 4-fluoro-6-(8-fluoro-2-(piperidin-4-yl)imidazo[1,2-a]pyridin-6-yl)-2-methylbenzo[d]thiazole] gave a half-maximal inhibitory concentration (IC50) of 1000 to 9000 nM.
`Cc1cn2nc(-c3cc(F)c4nc(N5CCC(CN(C)C)C5)oc4c3)cc(C)c2n1` (stereo not shown) [Compound 491, 1-(1-(6-(2,8-dimethylimidazo[1,2-b]pyridazin-6-yl)-4-fluorobenzo[d]oxazol-2-yl)pyrrolidin-3-yl)-N,N-dimethylmethanamine] registered an IC50 of 100 to 1000 nM.
In turn, `Cc1cn2nc(-c3cc(F)c4nc(C5CCN(C(=O)C6CC6)CC5)cn4c3)cc(C)c2n1` [Compound 121, cyclopropyl(4-(6-(2,8-dimethylimidazo[1,2-b]pyridazin-6-yl)-8-fluoroimidazo[1,2-a]pyridin-2-yl)piperidin-1-yl)methanone] returned a half-maximal inhibitory concentration (IC50) of 100 to 1000 nM.
In turn, `Cc1cn2nc(-c3cc(F)c4nc(NC(=O)C5CN(C6CC6)C5(C)C)cn4c3)cc(C)c2n1` (stereo not shown) [Compound 285, 1-cyclopropyl-N-(6-(2,8-dimethylimidazo[1,2-b]pyridazin-6-yl)-8-fluoroimidazo[1,2-a]pyridin-2-yl)-2,2-dimethylazetidine-3-carboxamide] came in with an IC50 of 100 to 1000 nM.
Next, `Cc1cn2nc(-c3cc(F)c4nn(CC5CCNC5)nc4c3)cc(C)c2n1` (stereo not shown) [Compound 386, 6-(2,8-dimethylimidazo[1,2-b]pyridazin-6-yl)-4-fluoro-2-(pyrrolidin-3-ylmethyl)-2H-benzo[d][1,2,3]triazole]: under 100 nM; `Cc1nc2c(C)cc(-c3cc(F)c4nc([C@H]5[C@@H]6CN(C)C[C@@H]65)cn4c3)nn2n1` [Compound 227, 6-(8-fluoro-2-((1R,5S,6r)-3-methyl-3-azabicyclo[3.1.0]hexan-6-yl)imidazo[1,2-a]pyridin-6-yl)-2,8-dimethyl-[1,2,4]triazolo[1,5-b]pyridazine]: under 100 nM; `Cc1cn2cc(-c3cc(F)c4nn(C5CCNCC5)nc4c3)cc2c(C)n1` [Compound 378, 6-(1,3-dimethylpyrrolo[1,2-a]pyrazin-7-yl)-4-fluoro-2-(piperidin-4-yl)-2H-benzo[d][1,2,3]triazole]: 100 to 1000 nM.
The result for `Cc1cn2cc(-c3cc(F)c4nc(C5CCNCC5)cn4c3)cc2c(C)n1` [Compound 31, 6-(1,3-dimethylpyrrolo[1,2-a]pyrazin-7-yl)-8-fluoro-2-(piperidin-4-yl)imidazo[1,2-a]pyridine] reads under 100 nM; that for `COc1cc(-c2cc(F)c3nn(C4CCNCC4)nc3c2)nn2nc(C)nc12` [Compound 392, 6-(7-fluoro-2-(piperidin-4-yl)-2H-benzo[d][1,2,3]triazol-5-yl)-8-methoxy-2-methyl-[1,2,4]triazolo[1,5-b]pyridazine], 100 to 1000 nM.
`Cc1cn2nc(-c3cc(F)c4nn([C@H]5[C@@H]6CNC[C@@H]65)cc4c3)cc(C)c2n1` [Compound 361, 6-[2-[(1R,5S)-3-azabicyclo[3.1.0]hexan-6-yl]-7-fluoro-indazol-5-yl]-2,8-dimethyl-imidazo[1,2-b]pyridazine] registered a 50% inhibitory concentration (IC50) of under 100 nM.
Turning to `Cc1cc2nc(-c3cc(F)c4nc(C5CCNCC5)cn4c3)ccn2n1` [Compound 200, 5-(8-fluoro-2-(piperidin-4-yl)imidazo[1,2-a]pyridin-6-yl)-2-methylpyrazolo[1,5-a]pyrimidine], the concentration for half-maximal inhibition (IC50) is under 100 nM.
The result for `Cc1cc(-c2cc(F)c3nc(C4CCNCC4)cn3c2)ccc1C#N` [Compound 38, 4-(8-fluoro-2-(piperidin-4-yl)imidazo[1,2-a]pyridin-6-yl)-2-methylbenzonitrile] reads 1000 to 9000 nM; that for `Cn1cc2cc(-c3cc(F)c4nc(C5CCNC(C)(C)C5)cn4c3)cc(F)c2n1` (stereo not shown) [Compound 63, 5-(2-(2,2-dimethylpiperidin-4-yl)-8-fluoroimidazo[1,2-a]pyridin-6-yl)-7-fluoro-2-methyl-2H-indazole], 1000 to 9000 nM; that for `Cc1cn2nc(-c3cc(F)c4nc(C56CC(N(C)C7CC7)(C5)C6)cn4c3)cc(C)c2n1` [Compound 208, N-cyclopropyl-3-(6-(2,8-dimethylimidazo[1,2-b]pyridazin-6-yl)-8-fluoroimidazo[1,2-a]pyridin-2-yl)-N-methylbicyclo[1.1.1] pentan-1-amine], 100 to 1000 nM.
The result for `Cc1cn2nc(-c3cc(F)c4nc(NC(=O)C5CCCN(C)C5)cn4c3)cc(C)c2n1` (single isomer, unassigned) [Compound 277] reads under 100 nM.
On to `Cc1cn2cc(-c3cc(F)c4nc(C5CCNCC5)cn4c3)cc(F)c2n1` [Compound 97, 8,8′-difluoro-2-methyl-2′-(piperidin-4-yl)-6,6′-biimidazo[1,2-a]pyridine], for which the IC50 lay within 100 to 1000 nM.
With `Cc1cn2nc(-c3cc(F)c4nc(C56CNC(C5)C6)cn4c3)cc(C)c2n1` [Compound 159], the IC50 lay in the range of 100 to 1000 nM.
Consider `Cc1cn2nc(-c3cc(F)c4nc(NC(=O)C5CNCC5(C)C)nn4c3)cc(C)c2n1` (stereo not shown) [Compound 319, N-(6-(2,8-dimethylimidazo[1,2-b]pyridazin-6-yl)-8-fluoro-[1,2,4]triazolo[1,5-a]pyridin-2-yl)-4,4-dimethylpyrrolidine-3-carboxamide], for which the IC50 is 1000 to 9000 nM.
Consider `Cc1cn2nc(-c3cc(F)c4nc(N5CCC(N(C)C)CC5)oc4c3)cc(C(F)(F)F)c2n1` [Compound 506, 1-(4-fluoro-6-(2-methyl-8-(trifluoromethyl)imidazo [1,2-b]pyridazin-6-yl)benzo[d]oxazol-2-yl)-N,N-dimethylpiperidin-4-amine], for which the half-maximal inhibitory concentration (IC50) was under 100 nM.
Next, `[2H]C1(N2CCC(c3cn4cc(-c5cc(C)c6nc(C)cn6n5)cc(F)c4n3)CC2)CC1` [Compound 207, 6-(2-(1-(cyclopropyl-1-d)piperidin-4-yl)-8-fluoroimidazo[1,2-a]pyridin-6-yl)-2,8-dimethylimidazo[1,2-b]pyridazine]: under 100 nM; `Cc1cn2nc(-c3cc(F)c4[nH]c(C5CCN(C6CCCC6)CC5)nc4c3)cc(C)c2n1` [Compound 427, 6-(2-(1-cyclopentylpiperidin-4-yl)-7-fluoro-1H-benzo[d]imidazol-5-yl)-2,8-dimethylimidazo[1,2-b]pyridazine]: under 100 nM; `Cc1cn2nc(-c3cc(F)c4nc(N5CCC(CN6CCCC6)C5)oc4c3)cc(C)c2n1` (stereo not shown) [Compound 483, 6-(2,8-dimethylimidazo[1,2-b]pyridazin-6-yl)-4-fluoro-2-(3-(pyrrolidin-1-ylmethyl)pyrrolidin-1-yl)benzo[d]oxazole]: 100 to 1000 nM.
Compound `Cc1cn2nc(-c3cc(F)c4nc(C5CCN(Cc6ncccn6)CC5)nn4c3)cc(C)c2n1` [Compound 441, 6-(2,8-dimethylimidazo[1,2-b]pyridazin-6-yl)-8-fluoro-2-(1-(pyrimidin-2-ylmethyl)piperidin-4-yl)-[1,2,4]triazolo[1,5-a]pyridine] displayed a 50% inhibitory concentration (IC50) of 100 to 1000 nM.
`Cc1cn2nc(-c3cc(F)c4nc(NC(=O)C5CN(C(C)C)C5)cn4c3)cc2c(C)n1` [Compound 295, N-(6-(4,6-dimethylpyrazolo[1,5-a]pyrazin-2-yl)-8-fluoroimidazo[1,2-a]pyridin-2-yl)-1-isopropylazetidine-3-carboxamide] showed a half-maximal inhibitory concentration (IC50) of under 100 nM.
